Earlier results, collected in patent US7593820B2, “Crystal structure of human Janus Kinase 2 (JAK2) and uses thereof” (Cytopia Research Pty Ltd, priority 2005, dated 2009).

Tested on: other PTKs that possess either a Thr or Val
Settings: Thr or Val at gatekeeper position

**Q.** With CC(C)(C)c1nc2c3cc[nH]c(=O)c3c3cc(F)ccc3c2[nH]1 [Compound 6, 2-tert-Butyl-9-fluoro-3,6-dihydro-7H-benz[h]imidazo[4,5-f]isoquinolin-7-one] as the molecule, how does the “IC50 for other PTKs that possess either a Thr or Val” value read?
**A.** uM range
